Converted amounts (≈) assume the structure as drawn.
How the values were obtained:
Assay type in all cases: cell-based
[1] = tested on: Neutrophils purified from human peripheral blood; assay: Human Neutrophil Transwell Migration Assay; conditions: 37° C., 45 minutes, % of the maximum migration possible
Source text: Neutrophils were purified from human peripheral blood utilizing PolymorphPrep. Red blood cells were lysed with a lysis buffer and the cells were washed, counted and resuspended in assay buffer. Neutrophils (approximately 50,000 to 100,000 in number) were placed over 5-micon pore sized transwell plates in 24-well format with test compounds in the bottom chamber of each well. A negative control of media alone in the bottom chamber was set up in triplicate. A positive control where the neutrophils were added directly to the bottom well was set up in triplicate.
The plates were incubated at 37° C. for 45 minutes to allow for migration. After this time, migration was confirmed visually and then an aliquot (⅙^th of total cells) from each well was taken for ATP detection via luminescence with ATPlite (PerkinElmer) to quantify the number of migrated cells. The averaged reading for random migration detected in the negative control was subtracted from all readings to obtain the corrected migration number. These numbers were then divided by the averaged reading from the positive control to get the % Neutrophil Migration of the maximum migration possible.

A. fumigatus MYA-3626 = assay: MEC assay (Example 31); conditions: RPMI pH 7.0, 35° C., 24-48 hr
Description: (§1) The test organisms consisted of strains from the Micromyx collection. Reference isolates were originally received from the American Type Culture Collection (ATCC; Manassas, Va.). Organisms received at Micromyx were initially streaked for isolation on Sabouraud dextrose or potato dextrose agar. Colonies were picked by swab from the medium and resuspended in the appropriate broth containing cryoprotectant. The suspensions were aliquoted into cryogenic vials and maintained at −80° C. Prior to testing, Candida isolates were streaked from the frozen vials on Sabouraud dextrose agar. The yeast isolates were incubated at overnight at 35° C. before use. The fungal isolates were incubated at least 7 days on Sabouraud dextrose agar slants at 35° C. before harvesting.
(§2) Isolates were tested in RPMI medium (Catalog No. SH30011.04; Lot No. AWA92121B; HyClone Labs, Logan, Utah) which was prepared according to CLSI guidelines. The pH of the medium was adjusted to 7.0 with 1 N NaOH. The medium was sterile filtered using a 0.2 μm PES filter and stored at 4° C. until used.
(§3) The MIC assay method employed automated liquid handlers to conduct serial dilutions and liquid transfers. Automated liquid handlers included the Multidrop 384 (Labsystems, Helsinki, Finland), Biomek 2000 and Biomek FX (Beckman Coulter, Fullerton Calif.). The wells in columns 2-12 in standard 96-well microdilution plates (Costar 3795) were filled with 150 μl of the correct diluent (50% DMSO for investigational compounds, 100% DMSO for comparator compounds). These would become the mother plates' from which ‘daughter’ or test plates would be prepared. Stocks were diluted to 40× the desired top concentration in the test plates in the indicated solvent, and 300 μL of the 40× stock was dispensed into the appropriate well in Column 1 of the mother plates. The Biomek 2000 was used to make serial serial 2-fold dilutions through Column 11 in the “mother plate”. The wells of Column 12 contained no drug and served as the organism growth control wells.
(§4) The daughter plates were loaded with 185 μL per well of RPMI described above using the Multidrop 384. The daughter plates were prepared using the Biomek FX which transferred 5 μL of drug solution from each well of a mother plate to the corresponding well of the daughter plate in a single step.
(§5) A standardized inoculum of each organism was prepared. For Candida, colonies were picked from the streak plate and a suspension was prepared in RPMI medium equal to a 0.5 McFarland standard, then diluted 1:100 in RPMI and transferred to compartments of sterile reservoirs divided by length (Beckman Coulter). For the Aspergillus isolates, previously prepared and quantitated suspensions were used to make dilutions in RPMI to reach 20× the final concentration. These dilutions were also transferred to compartments of sterile reservoirs divided by length (Beckman Coulter). The final concentration of the Aspergillus isolates was approximately 0.2-2.5×10^4 CFU/mL.
(§6) The Biomek 2000 was used to inoculate the plates. Daughter plates were placed on the Biomek 2000 work surface reversed so that inoculation took place from low to high drug concentration. The Biomek 2000 delivered 10 μL of standardized inoculum into each well. Thus, the wells of the daughter plates ultimately contained 185 μL of RPMI, 5 μL of drug solution, and 10 μL of inoculum. The final concentration of DMSO in the test well was 2.5% for the evaluated comparators and 1.25% for the investigational agents.
(§7) Plates were stacked 3 high, covered with a lid on the top plate, placed into plastic bags, and incubated at 35° C. for approximately 24-48 hr prior to reading. Plates were read when inoculum was confluent in growth wells. Plates were viewed from the bottom using a plate viewer. […] MICs were read where visible growth of the organism was inhibited. MECs were read where the growth shifted to a small, rounded, compact hyphal form as compared to the hyphal growth seen in the growth control well.

A. fumigatus MX 5944 = assay: MEC assay (Example 31); conditions: RPMI pH 7.0, 35° C., 24-48 hr
Description: as §1, §2, §3, §4, §5, §6, §7

A. fumigatus MYA-4609 = assay: MEC assay (Example 31); conditions: RPMI pH 7.0, 35° C., 24-48 hr
Description: as §1, §2, §3, §4, §5, §6, §7

A. fumigatus ATCC 13073 = assay: MEC assay (Example 31); conditions: RPMI pH 7.0, 35° C., 24-48 hr
Description: as §1, §2, §3, §4, §5, §6, §7

A. flavus MX 5948 = assay: MEC assay (Example 31); conditions: RPMI pH 7.0, 35° C., 24-48 hr
Description: as §1, §2, §3, §4, §5, §6, §7

C. albicans ATCC 90028 = assay: microbe, parasite or virus in culture
Description: as §1, §2, §3, §4, §5, §6, §7

[2] = tested on: C. parapsilosis ATCC 22019; assay: microbe, parasite or virus in culture
Description: as §1, §2, §3, §4, §5, §6, §7

C. glabrata ATCC 90030 = assay: microbe, parasite or virus in culture
Description: as §1, §2, §3, §4, §5, §6, §7

C. krusei ATCC 14243 = assay: microbe, parasite or virus in culture
Description: as §1, §2, §3, §4, §5, §6, §7

Structure (SMILES) | MIC (C. albicans ATCC 90028; ATCC 90028, pH 7) [µg/mL] | MIC ([2]; ATCC 22019, pH 7) [µg/mL] | MIC (C. glabrata ATCC 90030; ATCC 90030, pH 7) [µg/mL] | MIC (C. krusei ATCC 14243; ATCC 14243, pH 7) [µg/mL] | % Neutrophil Migration ([1]; conc 0.001 μg/mL) [%] | % Neutrophil Migration ([1]; conc 0.01 μg/mL) [%] | % Neutrophil Migration ([1]; conc 0.1 μg/mL) [%] | % Neutrophil Migration ([1]; conc 1 μg/mL) [%] | % Neutrophil Migration ([1]; conc 10 μg/mL) [%] | MEC (A. fumigatus MYA-3626) | MEC (A. fumigatus MX 5944) | MEC (A. fumigatus MYA-4609) | MEC (A. fumigatus ATCC 13073) | MEC (A. flavus MX 5948) | MIC (C. albicans ATCC 90028; C. albicans ATCC 90028, RPMI pH 7.0, 35° C., 24-48 hr) [µg/mL] | MIC ([2]; C. parapsilosis ATCC 22019, RPMI pH 7.0, 35° C., 24-48 hr) [µg/mL] | MIC (C. glabrata ATCC 90030; C. glabrata ATCC 90030, RPMI pH 7.0, 35° C., 24-48 hr) [µg/mL] | MIC (C. krusei ATCC 14243; C. krusei ATCC 14243, RPMI pH 7.0, 35° C., 24-48 hr) [µg/mL]
CC[C@H](C)C[C@H](C)CCCCCCCCC(=O)N[C@H]1C[C@@H](O)[C@@H](NCCN)NC(=O)[C@@H]2[C@@H](O)CCN2C(=O)[C@H]([C@H](O)CCNC(=O)[C@H](CO)NC(=O)[C@H](CC(C)C)NC(=O)[C@H](CCSC)NC=O)NC(=O)[C@H]([C@H](O)[C@@H](O)c2ccc(O)cc2)NC(=O)[C@@H]2C[C@@H](O)CN2C(=O)[C@H]([C@@H](C)O)NC1=O [Compound 29] | 2 (≈ 1.38 µM) | >32 | 8 (≈ 5.51 µM) | 32 (≈ 22 µM) | 1.4 | 0.1 | 2.2 | 11.0 | 8.4 | 0.25 µg/mL | 0.25 µg/mL | 0.25 µg/mL | 0.5 µg/mL | 0.25 µg/mL | – | – | – | –
CC[C@H](C)C[C@H](C)CCCCCCCCC(=O)N[C@H]1C[C@@H](O)[C@@H](NCCNC(=O)C(Cc2ccccc2)NC(=O)C(CC(C)C)NC(=O)C(CCSC)NC(=O)Nc2ccc(Cl)cc2)NC(=O)[C@@H]2[C@@H](O)CCN2C(=O)[C@H]([C@H](O)CCN)NC(=O)[C@H]([C@H](O)[C@@H](O)c2ccc(O)cc2)NC(=O)[C@@H]2C[C@@H](O)CN2C(=O)[C@H]([C@@H](C)O)NC1=O (single isomer, unassigned) [Compound 13b] | – | – | – | – | 6.2 | 26.1 | 11.5 | −8.5 | −7.6 | 0.25 µg/mL | 0.25 µg/mL | 0.12 µg/mL | 0.25 µg/mL | 0.12 µg/mL | 2 (≈ 1.22 µM) | 32 (≈ 19.5 µM) | 8 (≈ 4.88 µM) | 16 (≈ 9.77 µM)
CC[C@H](C)C[C@H](C)CCCCCCCCC(=O)N[C@H]1C[C@@H](O)[C@@H](NCCN)NC(=O)[C@@H]2[C@@H](O)CCN2C(=O)[C@H]([C@H](O)CCNC(=O)[C@H](CCCCN)NC(=O)[C@H](Cc2ccccc2)NC(=O)[C@H](CC(C)C)NC(=O)[C@H](CCSC)NC=O)NC(=O)[C@H]([C@H](O)[C@@H](O)c2ccc(O)cc2)NC(=O)[C@@H]2C[C@@H](O)CN2C(=O)[C@H]([C@@H](C)O)NC1=O [Compound 14] | 2 (≈ 1.22 µM) | 16 (≈ 9.75 µM) | 16 (≈ 9.75 µM) | 16 (≈ 9.75 µM) | 0.9 | 1.9 | 14.8 | 21.4 | −9.0 | 0.25 µg/mL | 0.12 µg/mL | 0.12 µg/mL | 0.25 µg/mL | 0.12 µg/mL | – | – | – | –
CC[C@H](C)C[C@H](C)CCCCCCCCC(=O)N[C@H]1C[C@@H](O)[C@@H](OCCNC(=O)[C@H](Cc2ccccc2)NC(=O)[C@H](CC(C)C)NC(=O)[C@H](CCSC)NC=O)NC(=O)[C@@H]2[C@@H](O)CCN2C(=O)[C@H]([C@H](O)CCN)NC(=O)[C@H]([C@H](O)[C@@H](O)c2ccc(O)cc2)NC(=O)[C@@H]2C[C@@H](O)CN2C(=O)[C@H]([C@@H](C)O)NC1=O [Compound 12] | 1 to 2 | 8 to 16 | 4 to 8 | 8 to 16 | – | – | – | – | – | 0.06 to 0.25 µg/mL | 0.12 to 0.25 µg/mL | 0.06 to 0.12 µg/mL | ≦0.03-0.12 μg/mL | ≦0.03-0.12 μg/mL | – | – | – | –

Second part, led by results:

MIC (C. albicans ATCC 90028; ATCC 90028, pH 7) [µg/mL] | MIC ([2]; ATCC 22019, pH 7) [µg/mL] | MIC (C. glabrata ATCC 90030; ATCC 90030, pH 7) [µg/mL] | MIC (C. krusei ATCC 14243; ATCC 14243, pH 7) [µg/mL] | Structure (SMILES) | % Neutrophil Migration ([1]; conc 0.001 μg/mL) [%] | % Neutrophil Migration ([1]; conc 0.01 μg/mL) [%] | % Neutrophil Migration ([1]; conc 0.1 μg/mL) [%] | % Neutrophil Migration ([1]; conc 1 μg/mL) [%] | % Neutrophil Migration ([1]; conc 10 μg/mL) [%] | MEC (A. fumigatus MYA-3626) | MEC (A. fumigatus MX 5944) | MEC (A. fumigatus MYA-4609) | MEC (A. fumigatus ATCC 13073) | MEC (A. flavus MX 5948) | MIC (C. albicans ATCC 90028; C. albicans ATCC 90028, RPMI pH 7.0, 35° C., 24-48 hr) [µg/mL] | MIC ([2]; C. parapsilosis ATCC 22019, RPMI pH 7.0, 35° C., 24-48 hr) [µg/mL] | MIC (C. glabrata ATCC 90030; C. glabrata ATCC 90030, RPMI pH 7.0, 35° C., 24-48 hr) [µg/mL] | MIC (C. krusei ATCC 14243; C. krusei ATCC 14243, RPMI pH 7.0, 35° C., 24-48 hr) [µg/mL]
1 (≈ 0.668 µM) | 8 (≈ 5.34 µM) | 2 (≈ 1.34 µM) | 8 (≈ 5.34 µM) | CC[C@H](C)C[C@H](C)CCCCCCCCC(=O)N[C@H]1C[C@@H](O)[C@@H](NCCN)NC(=O)[C@@H]2[C@@H](O)CCN2C(=O)[C@H]([C@H](O)CCNC(=O)[C@H](CCSC)NC(=O)[C@H](CC(C)C)NC(=O)[C@H](CCSC)NC=O)NC(=O)[C@H]([C@H](O)[C@@H](O)c2ccc(O)cc2)NC(=O)[C@@H]2C[C@@H](O)CN2C(=O)[C@H]([C@@H](C)O)NC1=O [Compound 28] | −0.4 | 2.2 | 43.4 | −0.2 | −7.4 | 0.25 µg/mL | 0.25 µg/mL | 0.25 µg/mL | 0.25 µg/mL | 0.12 µg/mL | – | – | – | –
0.25 (≈ 0.2 µM) | 4 (≈ 3.19 µM) | 1 (≈ 0.798 µM) | 4 (≈ 3.19 µM) | CC[C@H](C)C[C@H](C)CCCCCCCCC(=O)N[C@H]1C[C@@H](O)[C@@H](NCCN)NC(=O)[C@@H]2[C@@H](O)CCN2C(=O)[C@H]([C@H](O)CCNC(=O)[C@H](CCSC)NC=O)NC(=O)[C@H]([C@H](O)[C@@H](O)c2ccc(O)cc2)NC(=O)[C@@H]2C[C@@H](O)CN2C(=O)[C@H]([C@@H](C)O)NC1=O [Compound 26] | −3.4 | −3.4 | −5.1 | −4.1 | 15.7 | ≦0.03 μg/mL | ≦0.03 μg/mL | ≦0.03 μg/mL | ≦0.03 μg/mL | ≦0.03 μg/mL | – | – | – | –
